Experiment [1] can be described thus: Inhibition of apoE4 expressed in Neuro2a cells assessed as increase in COX1 level by Western blot assay. The note with it: N2a. The class given is cell-based. (In general: A western blot detects proteins with antibodies after separation by electrophoresis.)
Experiment [2] in a line: Inhibition of apoE4 expressed in rat PC12 cells assessed as reversal of mitochondrial impairment. In kind it is cell-based. The note with it: pc-12.

The results in this text go back to ChEMBL document CHEMBL2176937, “Small-molecule structure correctors target abnormal protein structure and function: structure corrector rescue of apolipoprotein E4-associated neuropathology” (J Med Chem, 2012).

pEC50, pIC50: −log10 of the molar value.

As a reminder, the pIC50 is the negative decadic logarithm of the IC50, by convention in mol/L. Broadly, the pEC50 is the EC50 on a negative log10 scale, so that one unit is a factor of ten.

Regarding `Cn1nc(CC(=O)Nc2ccc(CN3CCN(C(=O)OC(C)(C)C)CC3)cc2)c2ccccc2c1=O`, the pIC50 in experiment [1] was 7.39.

Turning to `Cn1nc(CC(=O)Nc2cccc(-c3ccc(C#N)cc3)c2)c2ccccc2c1=O`, in experiment [2], the pEC50 was > 9.00.
